The series relates to CCRIS mutagenicity, Ames/micronucleus/aberration tests. Nature of the series: CCRIS mutagenicity studies. The following applies: Test System: AMES SALMONELLA TYPHIMURIUM

This note sets out measurements from PubChem BioAssay AID1259407 (Chemical Carcinogenesis Research Information System (CCRIS), 2018).

The source made the active and inactive calls. How the calls were made is not given here.

For `C/C(C=O)=C\c1ccccc1`, the mutagenic call (Strain/Indicator: TA98, Metabolic Activation: HAMSTER, LIVER, S-9, AROCLOR 1254 (10%), Method: PREINCUBATION) was “inactive; negative”; the mutagenic call (Strain/Indicator: TA98, Metabolic Activation: NONE, Method: PREINCUBATION) is “inactive; negative”; the mutagenic call (Strain/Indicator: TA98, Metabolic Activation: RAT, LIVER, S-9, AROCLOR 1254 (10%), Method: PREINCUBATION) was “inactive; negative”; the mutagenic call (Strain/Indicator: TA100, Metabolic Activation: HAMSTER, LIVER, S-9, AROCLOR 1254 (10%), Method: PREINCUBATION) was “inactive; negative”; the mutagenic call (Strain/Indicator: TA100, Metabolic Activation: NONE, Method: PREINCUBATION) is “inactive; negative”; the mutagenic call (Strain/Indicator: TA100, Metabolic Activation: RAT LIVER S-9, AROCLOR 1254, Method: PREINCUBATION) is “inactive; negative”. Moreover, the mutagenic call by setting is: (Strain/Indicator: TA100, Metabolic Activation: RAT, LIVER, S-9, AROCLOR 1254 (10%), Method: PREINCUBATION) “inactive; negative”; (Strain/Indicator: TA102, Metabolic Activation: MOUSE LIVER S-9, AROCLOR 1254, Method: PREINCUBATION) “inactive; negative”; (Strain/Indicator: TA102, Metabolic Activation: NONE, Method: PREINCUBATION) “inactive; negative”; (Strain/Indicator: TA102, Metabolic Activation: RAT LIVER S-9, AROCLOR 1254, Method: PREINCUBATION) “inactive; negative”; (Strain/Indicator: TA104, Metabolic Activation: MOUSE LIVER S-9, AROCLOR 1254, Method: PREINCUBATION) “inactive; negative”; (Strain/Indicator: TA104, Metabolic Activation: NONE, Method: PREINCUBATION) “inactive; negative”. Moreover, the mutagenic call was “inactive; negative” (Strain/Indicator: TA104, Metabolic Activation: RAT LIVER S-9, AROCLOR 1254, Method: PREINCUBATION); “inactive; negative” (Strain/Indicator: TA1535, Metabolic Activation: HAMSTER, LIVER, S-9, AROCLOR 1254 (10%), Method: PREINCUBATION); “inactive; negative” (Strain/Indicator: TA1535, Metabolic Activation: NONE, Method: PREINCUBATION); “inactive; negative” (Strain/Indicator: TA1535, Metabolic Activation: RAT, LIVER, S-9, AROCLOR 1254 (10%), Method: PREINCUBATION); “inactive; negative” (Strain/Indicator: TA1537, Metabolic Activation: HAMSTER, LIVER, S-9, AROCLOR 1254 (10%), Method: PREINCUBATION); “inactive; negative” (Strain/Indicator: TA1537, Metabolic Activation: NONE, Method: PREINCUBATION). Further, the mutagenic call (Strain/Indicator: TA1537, Metabolic Activation: RAT, LIVER, S-9, AROCLOR 1254 (10%), Method: PREINCUBATION) is “inactive; negative”.

Turning to `CC1(C)CO1`, the mutagenic call (Strain/Indicator: TA100, Metabolic Activation: NONE, Method: FLASK ASSAY) was “active; positive”; the mutagenic call (Strain/Indicator: TA100, Metabolic Activation: NONE, Method: FLASK VAPORIZATION) was “active; positive”; the mutagenic call (Strain/Indicator: TA100, Metabolic Activation: RAT, LIVER, S-9, AROCLOR 1254, Method: FLASK ASSAY) was “active; positive”; the mutagenic call (Strain/Indicator: TA100, Metabolic Activation: RAT, LIVER, S-9, AROCLOR 1254, Method: FLASK VAPORIZATION) was “active; positive”; the mutagenic call (Strain/Indicator: TA102, Metabolic Activation: NONE, Method: FLASK ASSAY) is “active; positive”; the mutagenic call (Strain/Indicator: TA102, Metabolic Activation: RAT, LIVER, S-9, AROCLOR 1254, Method: FLASK ASSAY) was “active; positive”. Further, the mutagenic call is “active; positive” (Strain/Indicator: TA1535, Metabolic Activation: NONE, Method: FLASK ASSAY); “active; positive” (Strain/Indicator: TA1535, Metabolic Activation: NONE, Method: FLASK VAPORIZATION); “active; positive” (Strain/Indicator: TA1535, Metabolic Activation: RAT, LIVER, S-9, AROCLOR 1254, Method: FLASK ASSAY); “active; positive” (Strain/Indicator: TA1535, Metabolic Activation: RAT, LIVER, S-9, AROCLOR 1254, Method: FLASK VAPORIZATION).
